Measured values taken from ChEMBL document CHEMBL2385074, “Structure-activity relationship analysis of bufadienolide-induced in vitro growth inhibitory effects on mouse and human cancer cells” (J Nat Prod, 2013).
pIC50: −log10 of the molar value. Active and inactive are the calls of the source. The calls are words filed in the database; no cut-off is given here.

What was measured:
A549 [1] = test: Cytotoxicity against human A549 cells after 3 days by MTT assay; type: functional, cell-based; details: A549, 72 h
[2] = Cytotoxicity against human Hs683 cells after 3 days by MTT assay; type: functional, cell-based; details: Hs 683, 72 h
[3] = Cytotoxicity against mouse CT26.WT cells after 3 days by MTT assay; type: functional, cell-based; details: 72 h
[4] = Cytotoxicity against human U373 cells after 3 days by MTT assay; type: functional, cell-based, U-373MG ATCC; details: U373 MG, 72 h
SK-MEL-28 [5] = test: Cytotoxicity against human SK-MEL-28 cells after 3 days by MTT assay; type: functional, cell-based; details: SK-MEL-28, 72 h
B16-F10 [6] = test: Cytotoxicity against mouse B16F10 cells after 3 days by MTT assay; type: functional, cell-based; details: B16-F10, 72 h
MCF7 [7] = test: Cytotoxicity against human MCF7 cells after 3 days by MTT assay; type: functional, cell-based; details: MCF7, 72 h
PC-3 [8] = test: Cytotoxicity against human PC3 cells after 3 days by MTT assay; type: functional, cell-based; details: PC-3, 72 h
A549 [9] = test: Cytotoxicity against human A549 cells at <= 10 uM after 3 days by MTT assay; type: functional, cell-based
SK-MEL-28 [10] = test: Cytotoxicity against human SK-MEL-28 cells at <= 10 uM after 3 days by MTT assay; type: functional, cell-based
U-373MG ATCC = test: Cytotoxicity against human U373 cells at <= 10 uM after 3 days by MTT assay; type: functional, cell-based
B16-F10 [11] = test: Cytotoxicity against mouse B16F10 cells at <= 10 uM after 3 days by MTT assay; type: functional, cell-based
Hs 683 = test: Cytotoxicity against human Hs683 cells at <= 10 uM after 3 days by MTT assay; type: functional, cell-based
PC-3 [12] = test: Cytotoxicity against human PC3 cells at <= 10 uM after 3 days by MTT assay; type: functional, cell-based
MCF7 [13] = test: Cytotoxicity against human MCF7 cells at <= 10 uM after 3 days by MTT assay; type: functional, cell-based
CT26.WT = test: Cytotoxicity against mouse CT26.WT cells at <= 10 uM after 3 days by MTT assay; type: functional, cell-based

Compound	pIC50 (A549 [1])	pIC50 [2]	pIC50 [3]	pIC50 [4]	pIC50 (SK-MEL-28 [5])	pIC50 (B16-F10 [6])	pIC50 (MCF7 [7])	pIC50 (PC-3 [8])	Activity (A549 [9])	Activity (SK-MEL-28 [10])	Activity (U-373MG ATCC)	Activity (B16-F10 [11])	Activity (Hs 683)	Activity (PC-3 [12])	Activity (MCF7 [13])	Activity (CT26.WT)
C[C@]12CC[C@H]3[C@@H](CC[C@H]4C[C@@H](O)CC[C@@]43C=O)[C@@]1(O)CC[C@@H]2c1ccc(=O)oc1	7.29	7.40	< 5.00	7.21	6.47	< 5.00	6.56	5.61	–	–	–	–	–	–	–	–
CC(=O)O[C@H]1CC[C@@]2(C)[C@H](CC[C@@H]3[C@@H]2[C@H](OC(C)=O)C(=O)[C@]2(C)[C@@H](c4ccc(=O)oc4)CC[C@]32O)C1	5.23	5.58	< 5.00	5.06	5.10	< 5.00	5.14	< 5.00	–	–	–	–	–	–	–	–
C[C@]12CC[C@H](O)C[C@H]1CC[C@@H]1C2=C(O)C(=O)[C@]2(C)[C@@H](c3ccc(=O)oc3)CC[C@]12O [ARGENTINOGENIN]	7.28	8.05	< 5.00	7.07	7.15	< 5.00	7.44	7.37	–	–	–	–	–	–	–	–
C[C@]12CC[C@H](OC(c3ccccc3)c3ccccc3)C[C@@]1(O)CC[C@@H]1[C@@H]2CC[C@]2(C)[C@@H](C(=O)OC(c3ccccc3)c3ccccc3)CC[C@]12O	–	–	–	–	–	–	–	–	inactive	inactive	inactive	inactive	inactive	inactive	inactive	inactive
COC(=O)[C@H]1CC[C@]2(O)[C@@H]3CC[C@@H]4C[C@@H](OC(C)=O)CC[C@]4(C)[C@H]3[C@H](OC(C)=O)[C@@H](OC(C)=O)[C@]12C	–	–	–	–	–	–	–	–	inactive	inactive	inactive	inactive	inactive	inactive	inactive	inactive
C[C@]12CCC(=O)C=C1CC[C@@H]1[C@@H]2CC[C@]2(C)[C@@H](c3ccc(=O)oc3)CC[C@]12O [SCILLARENONE]	6.48	7.14	< 5.00	6.40	5.79	< 5.00	6.47	6.55	–	–	–	–	–	–	–	–
CC(=O)O[C@H]1CC[C@@]2(C)[C@H](CC[C@@H]3[C@@H]2[C@H](OC(C)=O)C(=O)[C@]2(C)[C@@H]4CC[C@]32OC4=O)C1	–	–	–	–	–	–	–	–	inactive	inactive	inactive	inactive	inactive	inactive	inactive	inactive
CC(=O)N[C@@H]1CC[C@@]2(C)[C@H](CC[C@@H]3[C@@H]2CC[C@]2(C)[C@@H](c4ccc(=O)oc4)[C@@H](OC(C)=O)[C@H]4O[C@]342)C1	6.52	6.51	< 5.00	6.42	5.46	< 5.00	6.14	6.37	–	–	–	–	–	–	–	–
C[C@H]1O[C@@H](O[C@H]2[C@@H](O)C[C@H](O[C@H]3[C@@H](O)C[C@H](O[C@H]4CC[C@@]5(C)[C@H](CC[C@@H]6[C@@H]5C[C@@H](O)[C@]5(C)[C@@H](C7=CC(=O)OC7)CC[C@]65O)C4)O[C@@H]3C)O[C@@H]2C)C[C@H](O)[C@@H]1O [DIGOXIN]	7.30	7.40	< 5.00	6.84	6.58	< 5.00	6.37	7.12	–	–	–	–	–	–	–	–
C[C@]12CC[C@H](O)C[C@@H]1CC[C@@H]1[C@@H]2CC[C@]2(C)[C@@H](c3ccc(=O)oc3)CC[C@]12O	–	7.68	< 5.00	6.44	6.33	< 5.00	6.37	7.17	–	–	–	–	–	–	–	–
